Data: patent US20090215036A1, “Genetic Alterations Useful For The Response Prediction of Malignant Neoplasia to Taxane-Based Medical Treatments” (Bayer HealthCare AG, priority 2004, published 2009)

Legend:
breast cancer patients [1] = assay: Bivariate DNA and/or RNA marker combinations, +Taxol arm vs. -Taxol arm, quadrant analysis with Kaplan-Meier plots; details: GR3 + 4
breast cancer patients [2] = assay: Kaplan-Meier disease free survival of the two therapy arms (E-T-CMF vs. E-CMF) in respect to gene amplifications
Experimental: These samples were formalin-fixed and paraffin-embedded material from primary tumours. A detailed clinical report about all patients was available. The anonymized data included all medical, therapeutical, clinical, histo- and pathological, and follow-up information incl. relapse or survival time.
More than 60 genes were analyzed according to the method disclosed in examples 1 and 2 by quantitative PCR after nucleic acid extraction from formaldehyde-fixed, paraffin-embedded tissue slides. Alterations of the analyzed genes were determined by comparison with at least two reference genes. Reference genes included mainly MMP28 and HNRPDL, but also HBB, B2M, SOD2. […] The reference genes should be independent from the ARCHEON alterations occurring in the neoplastic lesions and should not be affected by chromosomal alterations such as amplifications and deletions. […] By measuring genes located on the X-chromosome (e.g. SRY), the Y-chromosome (e.g. Xist) and on chromosome 21, defined copy numbers of 1, 2 and 3 genes could be determined as internal control during each run for standardization. […] The calculated performance differences were used as a filter for the measurements within the target tissues, i.e. primer/probe differences of each individual gene as depicted in the control cells and tissues were subtracted from each individual gene measurement performed in the target tissue. […]

**Q.** `CC(=O)O[C@H]1C(=O)[C@@]2(C)[C@H]([C@H](OC(=O)c3ccccc3)[C@]3(O)C[C@H](OC(=O)[C@H](O)[C@@H](NC(=O)c4ccccc4)c4ccccc4)C(C)=C1C3(C)C)[C@]1(OC(C)=O)CO[C@@H]1C[C@@H]2O` [Taxol] was tested. Which Benefit (breast cancer patients [1]; ABCG2_R thr 11.0 / SIVA_D thr 1.3, Quadrant LH) did it give?
**A.** OUT: Always beneficial

**Q.** What about the Benefit (breast cancer patients [1]; AFP_R thr −2.2 / EMS1_R thr 18.9, Quadrant HL) of the same compound?
**A.** OUT: Taxol beneficial

**Q.** And the Benefit (breast cancer patients [1]; AFP_R thr −2.2 / FLT1_D thr 3.3, Quadrant HL)?
**A.** OUT: Taxol beneficial

**Q.** What about the Benefit (breast cancer patients [1]; AFP_R thr −2.2 / TRAG3_D thr 1.2, Quadrant HH) of the same compound?
**A.** OUT: Taxol beneficial

**Q.** And the Benefit (breast cancer patients [1]; AFP_R thr −2.2 / TWIST1_D thr 1.1, Quadrant HH)?
**A.** OUT: Taxol beneficial

**Q.** What about the Benefit (breast cancer patients [1]; AFP_R thr −2.5 / ISGF3G_D thr 3.7, Quadrant HL) of the same compound?
**A.** OUT: Taxol beneficial

**Q.** What about the Benefit (breast cancer patients [1]; BUB3_D thr 2.0 / MST1_D thr 2.1, Quadrant HH) of the same compound?
**A.** OUT: Always beneficial

**Q.** What about the Benefit (breast cancer patients [1]; CCNE2_R thr 13.4 / MST1_D thr 2.0, Quadrant LL) of the same compound?
**A.** IN: Always beneficial

**Q.** What about the Benefit (breast cancer patients [1]; CIDEB_R thr 13.7 / ERBB3_R thr 14.7, Quadrant LH) of the same compound?
**A.** IN: Taxol beneficial

**Q.** And the Benefit (breast cancer patients [1]; CIDEB_R thr 13.7 / RIN1_D thr 2.1, Quadrant LL)?
**A.** IN: Taxol beneficial

**Q.** And the Benefit (breast cancer patients [1]; EMS1_R thr 15.9 / RIN1_D thr 2.1, Quadrant HL)?
**A.** IN: Taxol beneficial

**Q.** And the Benefit (breast cancer patients [1]; EMS1_R thr 16.9 / ERBB3_R thr 14.7, Quadrant HH)?
**A.** IN: Taxol beneficial

**Q.** And the Benefit (breast cancer patients [1]; ERBB3_R thr 14.7 / BRMS1_D thr 4.6, Quadrant HL)?
**A.** IN: Taxol beneficial

**Q.** And the Benefit (breast cancer patients [1]; ERBB3_R thr 14.7 / MUC1_D thr 2.6, Quadrant HL)?
**A.** IN: Taxol beneficial

**Q.** And the Benefit (breast cancer patients [1]; ERBB3_R thr 14.7 / VEGF_D thr 3.9, Quadrant HL)?
**A.** IN: Taxol beneficial

**Q.** And the Benefit (breast cancer patients [1]; ESR1_R thr 12.3 / CA9_R thr 1.4, Quadrant HH)?
**A.** OUT: Taxol beneficial

**Q.** What about the Benefit (breast cancer patients [1]; FNTA_R thr 11.9 / ERBB2_D thr 1.8, Quadrant HH) of the same compound?
**A.** OUT: Always beneficial

**Q.** What about the Benefit (breast cancer patients [1]; FolR2_D thr 2.9 / VEGF_D thr 2.6, Quadrant HL) of the same compound?
**A.** IN: Taxol beneficial

**Q.** What about the Benefit (breast cancer patients [1]; GSTP1_D thr 2.2 / ING1L_D thr 1.6, Quadrant LH) of the same compound?
**A.** OUT: Always beneficial

**Q.** What about the Benefit (breast cancer patients [1]; GSTP1_D thr 2.4 / MST1_D thr 2.1, Quadrant LH) of the same compound?
**A.** OUT: Always beneficial

**Q.** And the Benefit (breast cancer patients [1]; KISS I_D thr 1.3 / ERBB2_D thr 1.8, Quadrant HH)?
**A.** OUT: Always beneficial

**Q.** What about the Benefit (breast cancer patients [1]; MYC2_D thr 2.1 / ERBB3_R thr 14.4, Quadrant HH) of the same compound?
**A.** IN: Taxol beneficial

**Q.** What about the Benefit (breast cancer patients [1]; MYC2_D thr 2.2 / CASP10_D thr 2.2, Quadrant HL) of the same compound?
**A.** IN: Taxol beneficial

**Q.** And the Benefit (breast cancer patients [1]; PGR_R thr 9.1 / RIN1_D thr 2.1, Quadrant HL)?
**A.** IN: Taxol beneficial

**Q.** And the Benefit (breast cancer patients [1]; PGR_R thr 14.3 / ERBB3_R thr 14.7, Quadrant LH)?
**A.** IN: Taxol beneficial

**Q.** What about the Benefit (breast cancer patients [1]; PVT1_D thr 1.3 / RIN1_D thr 2.1, Quadrant HL) of the same compound?
**A.** IN: Taxol beneficial

**Q.** What about the Benefit (breast cancer patients [1]; RAD54B_D thr 1.2 / ERBB2_D thr 1.8, Quadrant HH) of the same compound?
**A.** OUT: Always beneficial

**Q.** What about the Benefit (breast cancer patients [1]; RIN1_D thr 2.1 / EMS1_D thr 1.2, Quadrant LH) of the same compound?
**A.** IN: Taxol beneficial

**Q.** And the Benefit (breast cancer patients [1]; RIN1_D thr 2.1 / VEGF_D thr 1.5, Quadrant LH)?
**A.** IN: Taxol beneficial

**Q.** And the Benefit (breast cancer patients [1]; STAU_R thr 17.6 / FLT1_R thr 3.5, Quadrant LL)?
**A.** OUT: Taxol beneficial

**Q.** And the Benefit (breast cancer patients [1]; TONDO_R thr 12.2 / ErbB4_D thr 2.2, Quadrant LH)?
**A.** IN: Taxol beneficial

**Q.** What about the Benefit (breast cancer patients [1]; VEGFa_R thr 13.0 / BOP1_D thr 2.0, Quadrant HH) of the same compound?
**A.** OUT: Always beneficial

**Q.** And the Benefit (breast cancer patients [1]; VEGFa_R thr 14.1 / AFP_R thr −1.0, Quadrant LH)?
**A.** IN: Always beneficial

**Q.** What about the “outcome of Taxol therapy in patients with gene amplification” value (breast cancer patients [2]; FIGS. 2a-c, ErbB4 and VEGF amplified, alone or as a marker set of two genes) of the same compound?
**A.** benefit from Taxol therapy

**Q.** What about the “correlation of gene amplification to Taxol resistance” value (breast cancer patients [2]; TRAG3 amplification) of the same compound?
**A.** no strong correlation
